{"source": "paper PMC9820303", "about": "“^αN-Acetyl β-Endorphin Is an Endogenous Ligand of σ1Rs That Regulates Mu-Opioid Receptor Signaling by Exchanging G Proteins for σ2Rs in σ1R Oligomers” (International Journal of Molecular Sciences, 2022)", "tested_on": "CD1 mice (wild-type and σ1R−/−)", "test": "Supraspinal analgesia, warm water (52 °C) tail-flick test", "type": "in vivo, mouse", "conditions": "for effect of exogenous σ1R ligands on β-End 1–31 analgesia: 3 nmol icv 20 min before 0.5 nmol β-End 1–31 icv; for effect on DAMGO analgesia: icv 20 min before DAMGO (0.1 nmol icv), evaluated 15 min after DAMGO; for effect on analgesia of the DOR agonists DPDPE and D-Ala^2 Deltorphin II: icv 20 min before DPDPE (10 nmol) or D-Ala2-deltorphin II (10 nmol) icv; for effect of C-terminal peptides on β-End 1–31 and morphine analgesia: icv 20 min before 0.5 nmol β-End 1–31 or 10 nmol morphine icv; for effect on β-End 1–31 analgesia, nonphysiological fragments: 1 nmol icv 20 min before 0.5 nmol β-End 1–31 icv, 6 mice", "protocol": "Upper panel: the withdrawal thresholds of the contralateral and ipsilateral paws were measured before (indicated as 0) and up to 14 days after surgery. […] Middle panel: 0.3 and 3 nmol of ^αN-acetyl β-End 1–31 were administered icv 7 days after surgery, and the nociceptive threshold was evaluated at the indicated postinjection intervals (in minutes). For every time interval studied in min or days, * indicates a significant difference from the group that received saline instead of ^αN-acetyl β-End 1–31; ϕ significant difference from the effect of 3 nmol ^αN-acetyl β-End 1–31. […] All data are presented as the mean ± SD of six mice. ANOVA followed by the Holm–Sidak multiple comparisons test, p < 0.05, 1-β > 0.80. […] Upper panel: wild-type mice were injected icv with saline, ^αN-acetyl β-End 1–31 (1 nmol/mouse) or the combination of the σ1R agonist PPCC (3 nmol/mouse) plus ^αN-acetyl β-End 1–31 20 min before morphine and β-End 1–31. Analgesia was evaluated by the warm water (52 °C) tail-flick test at the interval postinjection corresponding to their peak effect, 30 min. Lower panel: σ1R^−/− mice received 1 nmol ^αN-acetyl β-End 1–31, 20 min before morphine and β-End 1–31 and analgesia was evaluated as described above. Eight mice were used per strain and treatment. * Significant difference with respect to the group treated with morphine or β-End 1–31 alone. ANOVA followed by the Holm–Sidak multiple comparisons test, p < 0.05, 1-β > 0.80.\nFigure 3 Effect of physiological β-End 1–31 derivatives on morphine and β-End 1–31 analgesia. […] (A) The mice were icv-injected with 25 nmol of β-End 1–26, β-End 1–27 and ^αN-acetylated derivatives 20 min before icv 0.5 nmol β-End 1–31. Analgesia was determined at the indicated postinjection intervals. (B) CD1 wild-type and σ1R^−/− mice were administered C terminal peptide sequences 27–31, 28–31 and 30–31 of β-End 1–31 through an icv injection 20 min before 0.5 nmol of the whole β-End 1–31 and morphine (10 nmols) were injected icv. […] (C) A series of exogenous σ1R ligands (3 nmol) were icv-injected 20 min before 0.5 nmol β-End 1–31 was administered via icv in wild-type mice. The σ1R antagonist S1RA was also icv-injected before β-End 1–31 was administered icv in σ1R^−/− mice. (D) The effects of several doses of S1RA on morphine analgesia were studied in wild-type and σ1R^−/− mice. […] ANOVA followed by the Holm–Sidak multiple comparisons test, p < 0.05, 1-β > 0.80.\n(A) The effect of σ1R deletion on opioid- and cannabinoid-induced analgesia. Analgesic compounds were icv-injected into wild-type and σ1R^−/− mice, and analgesia was evaluated 30 min after morphine (3 nmol) and β-End 1–31 (0.5 nmol), 15 min after DAMGO (0.1 nmol) and DPDPE (10 nmol) and 10 min after WIN55,212-2 (15 nmol). The bars are the mean ± SD of eight mice per strain and treatment. * Significant difference with respect to the effect of the analgesic substance in the wild-type group. ANOVA followed by the Holm–Sidak multiple comparisons test, p < 0.05, 1-β > 0.80. (B) Coprecipitation of G proteins with MORs. Solubilized mouse brain cortical membranes enriched in synaptosomes (SBM) from CD1 wild-type (WT) and σ1R^−/− mice were solubilized with sonication in the presence of 1% NP-40. Non-soluble debris was eliminated, and the samples were then incubated overnight at 4 °C with affinity-purified biotinylated IgGs that were raised against extracellular regions of the MOR. Protein complexes that were immunoprecipitated with streptavidin agarose were extensively washed and then resolved by SDS-PAGE.", "data": [{"compound": "Br.Br.CN(C)CCN(C)CCc1ccc(Cl)c(Cl)c1", "note": "[BD1047, N′-[2-(3,4-dichlorophenyl)ethyl]-N,N,N′-trimethylethane-1,2-diamine;dihydrobromide, reference compound]", "values": [{"measurement": "effect of exogenous σ1R ligands on β-End 1–31 analgesia", "setting": "wild-type mice", "value": "diminished"}]}, {"compound": "COC(=O)[C@]1(c2ccc(C)cc2)C[C@@H]1CN1CCC(O)(c2ccccc2)CC1", "note": "[PPCC, (1R,2S/1S,2R)-2-[4-hydroxy-4-phenylpiperidin-1-yl)methyl]-1-(4-methylphenyl) cyclopropanecarboxylate, reference compound]", "values": [{"measurement": "effect of exogenous σ1R ligands on β-End 1–31 analgesia", "setting": "wild-type mice", "value": "did not alter the effect of β-End 1–31"}, {"measurement": "effect on the antagonist activity of β-End C-terminal peptides", "setting": "PPCC 3 nmol icv 10 min before the β-End C-terminal peptides", "value": "prevented"}, {"measurement": "effect on the impairment of morphine and β-End 1–31 analgesia by ^αN-acetyl β-End 1–31", "setting": "PPCC 3 nmol/mouse icv plus ^αN-acetyl β-End 1–31, wild-type mice", "value": "prevented the impairing effects"}]}, {"compound": "Cl.O=C(OCCN1CCOCC1)C1(c2ccccc2)CCCCC1", "note": "[PRE084, 2-(4-morpholinethyl)-1-phenylcyclohexanecarboxylate hydrochloride, reference compound]", "values": [{"measurement": "effect of exogenous σ1R ligands on β-End 1–31 analgesia", "setting": "wild-type mice", "value": "did not alter the effect of β-End 1–31"}]}, {"compound": "Cc1cc(OCCN2CCOCC2)nn1-c1ccc2ccccc2c1", "note": "[S1RA]", "values": [{"measurement": "effect of exogenous σ1R ligands on β-End 1–31 analgesia", "setting": "wild-type mice", "value": "diminished"}, {"measurement": "effect on morphine analgesia, 3 nmol", "setting": "3 nmol icv, wild-type mice", "value": "produced the maximum increase"}, {"measurement": "effect on morphine analgesia, 10 nmol", "setting": "10 nmol icv, wild-type mice", "value": "barely altered morphine effects"}, {"measurement": "effect on DAMGO analgesia", "value": "enhanced DAMGO analgesia"}, {"measurement": "effect on analgesia of the DOR agonists DPDPE and D-Ala^2 Deltorphin II", "value": "neither ^αN-acetyl β-End 1–31 nor S1RA altered the analgesic effects"}, {"measurement": "effect on morphine analgesia", "setting": "icv before morphine, wild-type mice", "value": "enhanced morphine analgesia"}]}, {"compound": "KKGE [β-End 28–31, C-terminal tetrapeptide of β-End 1–31]", "values": [{"measurement": "effect of C-terminal peptides on β-End 1–31 and morphine analgesia", "setting": "wild-type mice", "value": "reduced the analgesic activity of β-End 1–31 and morphine"}]}, {"compound": "YKKGE [β-End 27–31, C-terminal pentapeptide of β-End 1–31]", "values": [{"measurement": "effect of C-terminal peptides on β-End 1–31 and morphine analgesia", "setting": "wild-type mice", "value": "reduced the analgesic activity of β-End 1–31 and morphine"}]}, {"compound": "^αN-acetyl β-End 1–31: β-End 1–31 acetylated at N terminal Y1, α position", "values": [{"measurement": "effect on morphine and β-End 1–31 analgesic potency, 1 pmol", "setting": "1 pmol icv 30 min before morphine and β-End 1–31, wild-type mice", "value": "significant reductions in their analgesic potency"}, {"measurement": "effect on DAMGO analgesia", "value": "enhanced DAMGO analgesia"}, {"measurement": "effect on analgesia of the DOR agonists DPDPE and D-Ala^2 Deltorphin II", "value": "neither ^αN-acetyl β-End 1–31 nor S1RA altered the analgesic effects"}, {"measurement": "icv dose at which the regulatory effects on analgesia reached a maximum", "setting": "icv, persisted at 1 pmol or 1 nmol", "value": "1 to 10", "unit": "fmols"}, {"measurement": "effect on DAMGO and clonidine analgesia", "setting": "increasing icv doses 20 min before DAMGO (0.1 nmol) or clonidine (150 nmol) icv, wild-type mice", "value": "increased"}, {"measurement": "effect on morphine and β-End 1–31 analgesia in σ1R−/− mice", "setting": "σ1R−/− mice, icv before the opioids", "value": "not altered"}]}, {"compound": "β-End 6–31: β-End 1–31 lacking the N-terminal met-enkephalin 1–5 sequence (TSEKSQTPLVTLFKNAIIKNAYKKGE; Beta-endorphin; UniProt P01189 242-267, looked up, fragment)", "values": [{"measurement": "effect on β-End 1–31 analgesia, nonphysiological fragments", "value": "not produced"}]}, {"compound": "β-End 22–31: nonphysiological C-terminal sequence of β-End 1–31 (IIKNAYKKGE; Beta-endorphin; UniProt P01189 258-267, looked up, fragment)", "values": [{"measurement": "effect on β-End 1–31 analgesia, nonphysiological fragments", "value": "reduced β-End 1–31 analgesia"}]}]}
